Assay results: patent US9802960B2 (MILLENNIUM PHARMACEUTICALS, INC., priority 2014, dated 2017)

Target: Human VPS34 (Homo sapiens (Human), UniProt Q8NEB9)
Assay: Human VPS34 enzyme assay (Adapta TR-FRET)
Assay type: biochemical
Conditions: compound concentration 1.11 μM

Human VPS34, sequence (Q8NEB9 whole entry): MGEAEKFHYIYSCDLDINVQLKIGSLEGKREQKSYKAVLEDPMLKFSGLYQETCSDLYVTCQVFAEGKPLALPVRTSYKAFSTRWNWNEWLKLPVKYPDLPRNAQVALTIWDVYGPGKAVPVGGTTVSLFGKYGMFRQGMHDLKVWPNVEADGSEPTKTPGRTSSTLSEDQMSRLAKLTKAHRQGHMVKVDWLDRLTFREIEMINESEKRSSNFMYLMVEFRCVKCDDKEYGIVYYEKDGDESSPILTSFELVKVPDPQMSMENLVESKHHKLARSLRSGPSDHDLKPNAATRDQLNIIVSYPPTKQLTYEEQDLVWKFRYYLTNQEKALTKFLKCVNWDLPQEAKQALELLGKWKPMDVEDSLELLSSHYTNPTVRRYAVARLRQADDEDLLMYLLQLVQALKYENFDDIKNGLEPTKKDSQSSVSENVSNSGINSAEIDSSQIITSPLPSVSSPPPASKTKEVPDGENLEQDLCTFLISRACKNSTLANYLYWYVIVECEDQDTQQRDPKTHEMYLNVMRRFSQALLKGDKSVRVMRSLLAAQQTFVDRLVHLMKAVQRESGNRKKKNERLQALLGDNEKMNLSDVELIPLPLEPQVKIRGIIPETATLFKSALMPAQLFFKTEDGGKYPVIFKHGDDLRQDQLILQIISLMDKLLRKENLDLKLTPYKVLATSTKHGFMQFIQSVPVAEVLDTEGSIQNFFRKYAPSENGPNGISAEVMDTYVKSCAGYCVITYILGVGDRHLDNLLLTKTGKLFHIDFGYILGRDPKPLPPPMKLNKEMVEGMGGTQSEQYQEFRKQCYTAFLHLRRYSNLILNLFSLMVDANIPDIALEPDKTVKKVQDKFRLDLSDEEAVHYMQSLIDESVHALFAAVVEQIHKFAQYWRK

Percent Inhibition	SMILES
>99%	CC(=O)Nc1cc(-c2cnc(C)c(NS(=O)(=O)N3CC4CCC3C4)c2)ccn1 (stereo not shown) [Compound I-445, N-{5-[(2-azabicyclo[2.2.1]hept-2-ylsulfonyl)amino]-6-methyl-3,4′-bipyridin-2′-yl}acetamide]

Same assay, conditions: compound concentration 1.11 μM; read-out: Percent Inhibition

SMILES	inhibition at 1.11 µM
Cc1ncc(-c2ccnc(NC(=O)C3CC3)c2)cc1NS(=O)(=O)c1ccc(Cl)cc1F [Compound I-433, N-(5-{[(4-chloro-2-fluorophenyl)sulfonyl]amino}-6-methyl-3,4′-bipyridin-2′-yl)cyclopropanecarboxamide]	93%
CC(=O)Nc1cc(-c2cnc(Cl)c(C(=O)N3CCC3)c2)c(C)cn1 [Compound I-434]	36%
Cc1c(-c2ccnc(Nc3ccnc(C4CC4)n3)c2)cnc(Cl)c1NS(=O)(=O)N(C)C [Compound I-435, N′-{6-chloro-2′-[(2-cyclopropylpyrimidin-4-yl)amino]-4-methyl-3,4′-bipyridin-5-yl}-N,N-dimethylsulfuric diamide]	96%
CNc1ncc(-c2ccnc(NC(C)=O)c2)c(C)c1S(=O)(=O)NC(C)(C)C [Compound I-436, N-[5-(tert-butylsulfamoyl)-4-methyl-6-(methylamino)-3,4′-bipyridin-2′-yl]acetamide]	89%
CC(=O)Nc1cc(-c2cnc(Cl)c(NS(=O)(=O)c3cccc4ncccc34)c2C)ccn1 [Compound I-437, N-{6-chloro-4-methyl-5-[(quinolin-5-ylsulfonyl)amino]-3,4′-bipyridin-2′-yl}acetamide]	> 99%
CC(=O)Nc1cc(-c2cnc(Cl)c(S(=O)(=O)NC3CCC3)c2)ccn1 [Compound I-438, N-[6-chloro-5-(cyclobutylsulfamoyl)-3,4′-bipyridin-2′-yl]acetamide]	> 99%
Cc1nccc(Nc2cc(-c3cnc(C)c(NC(=O)Nc4ccccc4)c3)ccn2)n1 [Compound I-439, 1-{6-methyl-2′-[(2-methylpyrimidin-4-yl)amino]-3,4′-bipyridin-5-yl}-3-phenylurea]	69%
Cc1nccc(Nc2cc(-c3cncc(OC4CCc5c(F)cccc54)c3)ccn2)n1 (stereo not shown) [Compound I-440, 5-[(4-fluoro-2,3-dihydro-1H-inden-1-yl)oxy]-N-(2-methylpyrimidin-4-yl)-3,4′-bipyridin-2′-amine]	83%
Cc1ncc(-c2ccnc(NC(=O)C3CC3(F)F)c2)cc1NS(=O)(=O)c1ccc(Cl)cc1F (stereo not shown) [Compound I-441, N-(5-{[(4-chloro-2-fluorophenyl)sulfonyl]amino}-6-methyl-3,4′-bipyridin-2′-yl)-2,2-difluorocyclopropanecarboxamide]	> 99%
COc1ncc(-c2ccnc(NC(C)=O)c2)c(C)c1S(=O)(=O)NC(C)(C)C [Compound I-442, N-[5-(tert-butylsulfamoyl)-6-methoxy-4-methyl-3,4′-bipyridin-2′-yl]acetamide]	> 99%
CC(=O)Nc1cc(-c2cncc(S(=O)(=O)NC(C)(C)C)c2)ccn1 [Compound I-443, N-[5-(tert-butylsulfamoyl)-3,4′-bipyridin-2′-yl]acetamide]	> 99%
CC(=O)Nc1cc(-c2cnc(Cl)c(NS(=O)(=O)c3ccc(Br)cc3F)c2C)ccn1 [Compound I-444, N-(5-{[(4-bromo-2-fluorophenyl)sulfonyl]amino}-6-chloro-4-methyl-3,4′-bipyridin-2′-yl)acetamide]	> 99%

Now from value to compound:

inhibition at 1.11 µM	SMILES
> 99%	Cc1nccc(Nc2cc(-c3cnc(C)c(OC(C)C)c3)ccn2)n1 [Compound I-446, 5-isopropoxy-6-methyl-N-(2-methylpyrimidin-4-yl)-3,4′-bipyridin-2′-amine]
98%	CC(=O)Nc1cc(-c2cnc(C)c(NS(=O)(=O)N3CCOCC3)c2)ccn1 [Compound I-447, N-{6-methyl-5-[(morpholin-4-ylsulfonyl)amino]-3,4′-bipyridin-2′-yl}acetamide]
87%	CC(=O)Nc1cc(-c2cnc(Cl)c(N3CCCNS3(=O)=O)c2)ccn1 [Compound I-448, N-[6-chloro-5-(1,1-dioxido-1,2,6-thiadiazinan-2-yl)-3,4′-bipyridin-2′-yl]acetamide]
94%	CNc1ncc(-c2ccnc(NC(C)=O)c2)cc1C(=O)N(C)C12CC(C1)C2 [Compound I-449, 2′-acetamido-N-(bicyclo[1.1.1]pent-1-yl)-N-methyl-6-(methylamino)-3,4′-bipyridine-5-carboxamide]
87%	CC(=O)Nc1cc(-c2ccnc(Nc3ccnc(C)n3)c2)cn2nccc12 [Compound I-450, N-(6-{2-[(2-methylpyrimidin-4-34)amino]pyridin-4-yl}pyrazolo[1,5-a]pyridin-4-yl)acetamide]
> 99%	CC(=O)Nc1cc(-c2cncc(N3CCCN(C)S3(=O)=O)c2)ccn1 [Compound I-452, N-[5-(6-methyl-1,1-dioxido-1,2,6-thiadiazinan-2-yl)-3,4′-bipyridin-2′-yl]acetamide]
> 99%	Cc1nccc(Nc2cc(-c3c[n+]([O-])c(Cl)c(NS(=O)(=O)c4ccc(F)cc4F)c3C)ccn2)n1 [Compound I-454, N-(2-chloro-4-methyl-5-{2-[(2-methylpyrimidin-4-yl)amino]pyridin-4-yl}-1-oxidopyridin-3-yl)-2,4-difluorobenzenesulfonamide]
> 99%	CNS(=O)(=O)Nc1cc(-c2ccnc(NC(C)=O)c2)cnc1C [Compound I-455, N-{6-methyl-5-[(methylsulfamoyl)amino]-3,4′-bipyridin-2′-yl}acetamide]
> 99%	CCOC(=O)Nc1cc(-c2cnc(C)c(NS(=O)(=O)c3ccc(Cl)cc3F)c2)ccn1 [Compound I-456, ethyl (5-{[(4-chloro-2-fluorophenyl)sulfonyl]amino}-6-methyl-3,4′-bipyridin-2′-yl)carbamate]
95%	Cc1nccc(Nc2cc(-c3cnc(Cl)c(C(=O)N4CCC4)c3C)ccn2)n1 [Compound I-457, azetidin-1-yl{6-chloro-4-methyl-2′-[(2-methylpyrimidin-4-yl)amino]-3,4′-bipyridin-5-yl}methanone]
> 99%	CC(=O)Nc1cc(-c2cncc(N(C)S(=O)(=O)N(C)C)c2)ccn1 [Compound I-458, N-{5-[(dimethylsulfamoyl)(methyl)amino]-3,4′-bipyridin-2′-yl}acetamide]
96%	CC(=O)Nc1cc(-c2cncc(S(=O)(=O)Nc3ccccc3)c2)ccn1 [Compound I-459, N-[5-(phenylsulfamoyl)-3,4′-bipyridin-2′-yl]acetamide]
60%	CC(=O)Nc1cc(-c2cnc(C)c(N3CCCNC3=O)c2)ccn1 [Compound I-460, N-[6-methyl-5-(2-oxotetrahydropyrimidin-1 (2H)-yl)-3,4′-bipyridin-2′-yl]acetamide]
98%	CC(=O)Nc1cc(-c2cncc(S(=O)(=O)NC(C)(C)C)c2C)ccn1 [Compound I-462, N-(5-(N-(tert-butyl)sulfamoyl)-4-methyl-[3,4′-bipyridin]-2′-yl)acetamide]
> 99%	CC(=O)Nc1cc(-c2cnc(C)c(NS(=O)(=O)c3c(Cl)cccc3Cl)c2)ccn1 [Compound I-463, N-(5-{[(2,6-dichlorophenyl)sulfonyl]amino}-6-methyl-3,4′-bipyridin-2′-yl)acetamide]
